From patent US7932376B2, “Pyrimidine-based non-nucleotide composition and method for inhibiting platelet aggregation” (Inspire Pharmaceuticals, Inc., priority 2005, dated 2011)
Read-outs that look alike come from different tables or passages of the source.

Test system: ADP-induced aggregation of washed platelets
Assay: Inhibition of ADP-induced aggregation of washed platelets
Assay type: cell-based
Conditions: human washed platelets, light transmission aggregometry, 2 min pre-incubation with inhibitor before ADP, read-out: IC50 as inhibitors of ADP-induced aggregation of washed platelets
Description: Isolation of platelets: Human blood is obtained from informed healthy adult volunteers. Blood is collected into one-sixth volume of acid/citrate/dextrose (ACD) buffer (85 mM sodium citrate, 65 mM citric acid, and 110 mM glucose). Collected blood is placed in a water bath at 37° C. for 30 minutes. Blood is then centrifuged at 275×g for 16 minutes at room temperature and the platelet-rich plasma is removed and centrifuged at 2200×g for 13 minutes at room temperature. […]
Aggregation Studies: ADP-induced platelet aggregation is determined by measuring the transmission of light through a 0.5 ml suspension of stirred (1000 rpm) washed platelets in a lumi-aggregometer at 37° C. […] Platelet aggregation is initiated by the addition of indicated concentrations of ADP or other agonists, and the light transmission is continuously recorded for at least 8 min. When inhibitors of platelet aggregation are tested, platelets are incubated for 2 min in the presence of indicated concentrations of inhibitor before addition of ADP or other agonists, and the response is recorded for at least 8 min. The potency of agonists and inhibitors of platelet aggregation is calculated from both the rate of aggregation and the maximal extent of aggregation obtained for each determination by fitting the data to a four-parameter logistic equation using the GraphPad software package (GraphPad Corp. San Diego, Calif.). […]

Structure (SMILES)	IC50	IC50 (Platelet)
CCNC(=O)Nc1ccn(C2OC(COCc3c(F)cccc3C(=O)O)C3OC(/C=C/c4ccccc4)OC32)c(=O)n1 (stereo not drawn) [Compound 2, 2′,3′-trans-cinnamylacetal-5′-(2-carboxy-6-fluoro)benzyloxy-6-N-ethylurea cytidine]	1.3 µM	–
CCNC(=O)Nc1ccn([C@@H]2O[C@H](COCc3ccccc3C(=O)O)C3O[C@H](/C=C/c4ccccc4)O[C@@H]32)c(=O)n1 (stereo partly drawn) [Compound 1, 2′,3′-trans-cinnamylacetal-5′-(2-carboxy)benzyloxy-6-N-ethylurea cytidine]	–	23.5 µM
